Source: patent publication US8673914B2, “Use of phosphodiesterase inhibitors for treating multidrug resistance” (St. John's University, priority 2011, dated 2014)
Read-outs that look alike come from different tables or passages of the source.

Experiments:
KB-3-1 cells = test: [^3H]-paclitaxel accumulation (Example 2); format: cell-based, human; conditions: parental KB-3-1
Experimental: (§1) After washing 3 times with ice-cold PBS, the cells were trypsinized and lysed in 10 mM lysis buffer (pH 7.4, containing 1% Triton X-100 and 0.2% SDS). Each sample was placed in scintillation fluid and radioactivity was measured in a Packard TRI-CARB 1900CA liquid scintillation analyzer from Packard Instrument Company, Inc.

ABCG2-482-R2 (ABCG2) = test: MTT cytotoxicity/reversal assay (Example 1); conditions: +10 μM reversal agent
Experimental: (§2) The KB-C2 and KB-3-1 were kindly provided by Dr. Akiyama (Kagoshima University, Japan). HEK293-pcDNA3.1 and wild-type HEK/ABCG2 transfected cells were established by selection with G418 after transfecting HEK293 with either (1) empty pcDNA3.1 vector or (2) pcDNA3.1 vector containing full length of ABCG2 coding arginine (R) at amino acid position 482, and were then cultured in a medium with 2 mg/ml of G418 (ABCG2-482-R2 cells). Similarly, the HEK/MRP1 (ABCC1) and HEK/ABCB1 cells were generated by transfecting the HEK293 cells with either the MRP1 expression vector or the ABCB1 expression vector. All of the cell lines were grown in Dulbecco's modified Eagle's medium (DMEM) supplemented with 10% bovine serum, 100 units/ml penicillin, and […] streptomycin in a humidified incubator containing 5% CO2 at 37° C.
(§3) The MTT assay was used to assess cytotoxicity. The cultured cells were harvested with trypsin and resuspended in a final concentration of 4×10^3 cells/well for KB-3-1; 7.5×10^3 cells/well for KB-C2; and 8×10^3 for all of the other cell lines used in this study. Cells were seeded evenly in 96-well multiplates. […] After 68 h of incubation, 20 μl of the MTT solution (4 mg/ml) was added to each well, and the plate was further incubated for 4 h at 37° C., allowing viable cells to convert the yellow-colored MTT into dark-blue formazan crystals. Subsequently, the medium was discarded, and 100 μl of DMSO was added into each well to dissolve the formazan crystals, generating purple color. The absorbance was determined at 570 nm by an OPSYS Microplate Reader from DYNEX Technologies, Inc. (Chantilly, Va.). […] The degree of the reversal of multidrug resistance (MDR) was calculated by dividing the IC50 of an anticancer drug, e.g., an antineoplastic or chemotherapeutic drug (agent, compound), in a cell type in the absence of a reversal agent by the IC50 of the anticancer drug in the same cell type in the presence of the reversal agent. The IC50 values were calculated from survival curves using the Bliss method.

ABCG2 [1] = molecular target: T1, ABCG2 (Homo sapiens, UniProt Q9UNQ0); test: Photoaffinity labeling with [^125I]-IAAP (Example 2); format: binding; set-up: endogenous in cells; host or cells: MCF7/FLV1000 (MCF-7/Flv1000) crude membranes; conditions: 10 μM
T1 sequence (Q9UNQ0 whole entry): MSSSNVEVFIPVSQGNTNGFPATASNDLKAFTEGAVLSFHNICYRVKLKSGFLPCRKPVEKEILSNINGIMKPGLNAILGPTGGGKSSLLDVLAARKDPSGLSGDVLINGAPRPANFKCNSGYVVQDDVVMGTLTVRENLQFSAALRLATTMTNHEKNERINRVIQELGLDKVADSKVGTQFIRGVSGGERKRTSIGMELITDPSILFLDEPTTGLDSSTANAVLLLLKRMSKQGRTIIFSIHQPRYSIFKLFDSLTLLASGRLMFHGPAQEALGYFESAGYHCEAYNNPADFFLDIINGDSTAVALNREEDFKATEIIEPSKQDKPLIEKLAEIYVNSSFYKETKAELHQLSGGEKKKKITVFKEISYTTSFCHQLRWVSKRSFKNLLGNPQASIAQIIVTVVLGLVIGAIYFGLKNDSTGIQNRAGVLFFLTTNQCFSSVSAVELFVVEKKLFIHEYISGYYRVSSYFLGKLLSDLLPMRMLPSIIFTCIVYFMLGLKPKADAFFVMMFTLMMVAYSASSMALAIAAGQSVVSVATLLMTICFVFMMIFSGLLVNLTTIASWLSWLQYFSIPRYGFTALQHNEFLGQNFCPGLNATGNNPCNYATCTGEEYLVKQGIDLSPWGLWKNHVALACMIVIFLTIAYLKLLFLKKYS
Experimental: The photoaffinity labeling of ABCB1 and ABCG2 with [^125I]-IAAP was conducted as described in Sauna et al., supra. The crude membranes from HIGH FIVE™ insect cells expressing ABCB1 and MCF7/FLV1000 cells expressing R482 ABCG2 (50 μg of protein) were incubated at room temperature with different concentrations of drugs in 50 mM Tris-HCl (pH 7.5) with [^125I]-IAAP (5-7 nM) for 5 min under subdued light. […] ABCB1 and ABCG2 were immunoprecipitated using BXP-21 antibodies as described in Shukla et al., supra. Both ABCB1 and ABCG2 samples were subjected to SDS-PAGE in a 7% Trisacetate NuPAGE gel, the gel was dried, and exposed to Bio-Max MR film (Eastman Kodak Co.) at −70° C. for 8 to 12 h. The radioactivity incorporated into the ABCB1 or ABCG2 band was quantified using the STORM 860 Phosphorlmager System and ImageQuaNT (Molecular Dynamics).

[2] = In vitro transport assay, membrane vesicles; format: biochemical; conditions: HEK293/pcDNA3.1 vesicles
Experimental: Transport assays were carried out using the rapid filtration method as described in Chen et al. (2003) Cancer Res. 63:4048-54. […] Reactions were stopped by the addition of 3 mL of ice-cold stop solution (0.25 M sucrose, 100 mM NaCl, and 10 mM Tris-HCl, pH 7.4). During the rapid filtration step, samples were passed through 0.22 μm GVWP filters (Millipore) presoaked in the stop solution. The filters were washed three times with 3 mL of ice-cold stop solution. Radioactivity was measured by liquid scintillation counting.

HEK293/pcDNA3.1 = test: MTT cytotoxicity/reversal assay (Example 1); format: cell-based; conditions: for fold reversal, vincristine: alone
Experimental: as §2, §3

parental cells = test: [^3H]-mitoxantrone accumulation; format: cell-based
Experimental: as §1

[3] = test system: ABCG2-overexpressing cell lines; test: [^3H]-mitoxantrone accumulation; format: cell-based; conditions: 10 or 50 μM
Experimental: as §1, with “Cells in 24-well plates were preincubated with or without the reversal agents for 1 h at 37° C., then incubated with 0.1 μM [^3H]-paclitaxel or 0.2 μM [^3H]-mitoxantrone for 2 h in the presence or absence of the reversal agents at 37° C. After” for “After”

[4] = test system: KB-C2 and KB-V1 cells (ABCB1); test: [^3H]-paclitaxel accumulation (Example 2); format: cell-based, human; conditions: 10 μM
Experimental: as §1, with “Cells in 24-well plates were preincubated with or without the reversal agents for 1 h at 37° C., then incubated with 0.1 μM [^3H]-paclitaxel or 0.2 μM [^3H]-mitoxantrone for 2 h in the presence or absence of the reversal agents at 37° C. After” for “After”

KB-C2 xenografts = test: Mouse tumor xenografts; format: in vivo, mice; conditions: sildenafil 75 mg/kg p.o. + paclitaxel 18 mg/kg i.p. vs paclitaxel alone
Excerpt: Six-to-eight-week old male athymic NCR nude mice from Taconic (Hudson, N.Y.) were used for all xenografts. The mice were provided with sterilized food and water. The animal protocol was reviewed and approved by the Institutional Animal Care and Use Committee at St. John's University. […] When the tumors reached 0.5 cm, the mice were randomized into four groups, six mice per group: […] […] Mice were euthanized when the tumor weight exceeded 1 gram in the control group, and the tumors were excised and weighed.

[5] = test system: MRP7 localization in HEK/MRP7 cells; test: Immunofluorescence of MRP7; format: cell-based; conditions: 5 μM; 72 h
Experimental: HEK/MRP7 cells (1×10^4) were seeded in 24 well plates and cultured overnight. […] Cells were washed with PBS and fixed with 4% paraformaldehyde for 15 min at room temperature and then rinsed with PBS three times. Nonspecific reaction was blocked with 1% BSA for 1 h at room temperature. A polyclonal antibody D19 against MRP7 (1:200) was added and incubated overnight. […] DAPI was used for nuclear staining. Immunofluorescent images were taken with an inverted microscope (model IX70; Olympus, Center Valley, Pa.) with IX-FLA fluorescence and CCD camera.

[6] = test system: any of the cell lines used; test: MTT assay, sildenafil alone; format: cell-based; conditions: concentrations of up to 50 μM
Experimental: Cells in 96-well plates were preincubated with or without the reversal agents for 1 h and then different concentrations of chemotherapeutic drugs were added into designated wells. After 68 h of incubation, MTT solution (4 mg/mL) was added to each well, and the plate was further incubated for 4 h, allowing viable cells to change the yellow-colored MTT into dark-blue formazan crystals. Subsequently the medium was discarded, and […] of DMSO was added into each well to dissolve the formazan crystals. The absorbance was determined at 570 nm by an OPSYS MR Microplate Reader from DYNEX Technologies, Inc.

HEK/MRP7 cells [7] = test: [^3H]-paclitaxel efflux (Example 4); format: cell-based; conditions: 5 μM PDE5 inhibitor
Experimental: (§4) The effect of PDE5 inhibitors on the intracellular accumulation of paclitaxel in HEK293-pcDNA3.1 and HEK/MRP7 cells was measured using [^3H]-paclitaxel. […] For efflux studies, the cells were treated the same as in the drug accumulation study, and then washed three times with ice-cold PBS, and suspended in fresh medium with or without PDE5 inhibitors. Aliquots were evenly collected at various time points (0, 30, 60, and 120 min). Samples from both accumulation and efflux experiments were washed with ice-cold PBS three times and placed in scintillation fluid, and the radioactivity was measured in a Packard TRI-CARB® 1900CA liquid scintillation analyzer from Packard Instrument Company, Inc. (Downers Grove, Ill.).

[8] = test system: cells expressing wild-type or mutant ABCG2; test: BODIPY-prazosin flow cytometric assay; format: cell-based; conditions: 50 μM; weaker than FTC at […]
Experimental: Flow cytometric assays were carried out as follows. […] Cells were then washed once in cold complete medium and then incubated for another 1 h at 37° C. in substrate-free media with or without the same described concentrations of the inhibitors to generate the efflux histograms. Subsequently, cells were washed twice with cold DPBS (Dulbecco's PBS) and placed on ice in a dark environment until ready for analysis. […] For all samples, at least 10,000 events were collected. Cell debris was eliminated by gating on forward versus side scatter, and dead cells were excluded on the basis of propidium iodide staining.

ABCB1 = molecular target: T2, ABCB1 (Homo sapiens, UniProt P08183); test: Vi-sensitive ATPase assay (Example 2); format: biochemical; conditions: read-out: concentration required for 50% stimulation of ATPase activity
T2 construct: made in house; host or cells: High Five insect cells (membrane vesicles / crude membranes)
T2 sequence (P08183 whole entry): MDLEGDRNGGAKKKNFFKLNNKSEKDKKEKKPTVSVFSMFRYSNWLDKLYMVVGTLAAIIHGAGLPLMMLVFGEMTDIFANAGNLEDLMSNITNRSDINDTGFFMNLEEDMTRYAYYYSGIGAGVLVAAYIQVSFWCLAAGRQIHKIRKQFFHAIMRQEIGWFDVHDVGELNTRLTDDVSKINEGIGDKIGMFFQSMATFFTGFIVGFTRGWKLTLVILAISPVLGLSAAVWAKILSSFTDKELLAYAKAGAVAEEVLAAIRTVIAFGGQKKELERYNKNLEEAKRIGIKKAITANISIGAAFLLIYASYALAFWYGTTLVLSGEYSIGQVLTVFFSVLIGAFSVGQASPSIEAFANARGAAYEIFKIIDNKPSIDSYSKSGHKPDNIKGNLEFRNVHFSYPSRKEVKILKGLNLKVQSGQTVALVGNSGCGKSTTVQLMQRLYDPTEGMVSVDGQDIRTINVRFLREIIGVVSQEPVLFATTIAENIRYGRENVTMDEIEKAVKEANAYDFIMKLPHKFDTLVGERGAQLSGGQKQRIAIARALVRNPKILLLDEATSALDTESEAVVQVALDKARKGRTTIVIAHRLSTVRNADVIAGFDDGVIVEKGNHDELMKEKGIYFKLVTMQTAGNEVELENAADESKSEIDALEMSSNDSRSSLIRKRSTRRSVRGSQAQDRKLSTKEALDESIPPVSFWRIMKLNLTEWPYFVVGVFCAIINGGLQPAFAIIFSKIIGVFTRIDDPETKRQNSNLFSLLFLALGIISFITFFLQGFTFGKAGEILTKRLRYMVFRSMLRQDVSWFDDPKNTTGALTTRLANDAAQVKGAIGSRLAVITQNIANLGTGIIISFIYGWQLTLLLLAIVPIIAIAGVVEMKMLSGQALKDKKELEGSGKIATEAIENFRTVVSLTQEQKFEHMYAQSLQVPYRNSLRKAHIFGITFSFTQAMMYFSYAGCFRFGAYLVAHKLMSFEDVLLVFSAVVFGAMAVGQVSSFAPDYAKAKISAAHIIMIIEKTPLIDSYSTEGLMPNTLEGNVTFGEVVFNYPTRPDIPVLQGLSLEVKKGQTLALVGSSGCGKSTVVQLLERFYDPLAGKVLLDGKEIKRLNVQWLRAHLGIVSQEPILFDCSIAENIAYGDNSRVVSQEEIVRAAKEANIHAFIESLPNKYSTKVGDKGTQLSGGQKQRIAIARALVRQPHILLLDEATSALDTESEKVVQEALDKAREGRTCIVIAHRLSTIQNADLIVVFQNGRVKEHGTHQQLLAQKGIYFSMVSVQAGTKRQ
Experimental: (§5) The vanadate (Vi)-sensitive ATPase activity of ABCB1 or ABCG2 in the membrane vesicles of HIGH FIVE™ insect cells was measured as described in Ambudkar et al., supra. The membrane vesicles (100 μg of protein/mL) were incubated in ATPase assay buffer (50 mM MES, pH 6.8, 50 mM KCl, 5 mM sodium azide, 2 mM EGTA, 2 mM dithiothreitol, 1 mM ouabain, and 10 mM MgCl2) with or without 0.3 mM vanadate at 37° C. for 5 min, and then incubated with different concentrations of drugs at 37° C. for 3 min. The ATPase reaction was […] by the addition of 5 mM Mg-ATP. After incubating at 37° C. for 20 min, the reactions were stopped by adding 0.1 mL of 5% SDS solution. The liberated inorganic phosphate was measured as described in Shukla et al. (2006) Biochemistry 45:8940-51.

ABCG2 [9] = molecular target: T1, ABCG2; test: Vi-sensitive ATPase assay (Example 2); format: biochemical; conditions: read-out: concentration required for 50% stimulation of ATPase activity
Experimental: as §5

HEK/MRP7 cells [10] = test: [^3H]-paclitaxel accumulation (Example 4); format: cell-based; conditions: 5 μM, 2 h
Experimental: as §4

HEK/ABCB1 (ABCB1) = test: MTT cytotoxicity/reversal assay (Example 1); conditions: HEK/ABCB1; alone
Experimental: (§6) The KB-C2 and KB-3-1 were kindly provided by Dr. Akiyama (Kagoshima University, Japan). […] Similarly, the HEK/MRP1 (ABCC1) and HEK/ABCB1 cells were generated by transfecting the HEK293 cells with either the MRP1 expression vector or the ABCB1 expression vector. All of the cell lines were grown in Dulbecco's modified Eagle's medium (DMEM) supplemented with 10% bovine serum, 100 units/ml penicillin, and […] streptomycin in a humidified incubator containing 5% CO2 at 37° C.
as §3

[11] = MTT cytotoxicity/reversal assay (Example 1); conditions: human
Experimental: as §6, §3

HEK/MRP1 (ABCC1) = test: MTT cytotoxicity/reversal assay (Example 1); format: cell-based; conditions: alone
Experimental: as §6, §3

[12] = MTT cytotoxicity/reversal assay (Example 1); format: cell-based; conditions: human; HEK/MRP1; alone; read-out: IC50 of vincristine
Experimental: as §6, §3

COc1ccc(CCN(C)CCCC(C#N)(c2ccc(OC)c(OC)c2)C(C)C)cc1OC (centres unmarked) [Verapamil, verapamil]
intracellular levels of [^3H]-paclitaxel (KB-3-1 cells): Neither sildenafil nor verapamil altered the intracellular levels

COc1ccc2c3c([nH]c2c1)[C@H](C=C(C)C)N1C(=O)[C@@H]2CCCN2C(=O)[C@@H]1C3 [FTC, Fumitremorgin C]
fold reversal, SN-38 (ABCG2-482-R2 (ABCG2)): (3.84)
inhibition of [^125I]-IAAP photolabeling (ABCG2 [1]): about 40%
uptake rates of methotrexate and E217βG [2]: moderately decreased the uptake rates
fold reversal, SN-38 (HEK293/pcDNA3.1; HEK293/pcDNA3.1, +10 μM reversal agent): (1.13)
intracellular levels of [^3H]-mitoxantrone (parental cells): Neither sildenafil nor FTC affected the intracellular levels

CCCc1nn(C)c2c(=O)nc(-c3cc(S(=O)(=O)N4CCN(C)CC4)ccc3OCC)[nH]c12 [Sildenafil, sildenafil]
intracellular [^3H]-mitoxantrone levels [3]: elevated intracellular [^3H]-mitoxantrone levels
intracellular level of [^3H]-paclitaxel [4]: significantly increased the intracellular level
tumor weight and volume (KB-C2 xenografts): significant reduction in tumor weight and volume
MRP7 protein localization in plasma membranes [5]: no alteration of MRP7 protein localization
growth inhibition by sildenafil alone [6]: did not inhibit the growth of any of the cell lines used
percentage of intracellular [^3H]-paclitaxel (HEK/MRP7 cells [7]; 30 min): 90.62%
percentage of intracellular [^3H]-paclitaxel (HEK/MRP7 cells [7]; 60 min): 82.14%
percentage of intracellular [^3H]-paclitaxel (HEK/MRP7 cells [7]; 120 min): 62.35%
accumulation of BODIPY-prazosin [8]: enhanced the accumulation of BODIPY-prazosin
EC50 (ABCB1): 5 to 10 µM
EC50 (ABCG2 [9]): 0.25 to 0.5 µM
intracellular levels of [^3H]-mitoxantrone (parental cells): Neither sildenafil nor FTC affected the intracellular levels
increase of intracellular accumulation of [^3H]-paclitaxel (HEK/MRP7 cells [10]): 3.3 fold
intracellular levels of [^3H]-paclitaxel (KB-3-1 cells): Neither sildenafil nor verapamil altered the intracellular levels

CC[C@]1(O)C[C@H]2CN(CCc3c([nH]c4ccccc34)[C@@](C(=O)OC)(c3cc4c(cc3OC)N(C=O)[C@H]3[C@@](O)(C(=O)OC)[C@H](OC(C)=O)[C@]5(CC)C=CCN6CC[C@]43[C@@H]65)C2)C1 [Vincristine, vincristine]
fold reversal, vincristine (HEK/ABCB1 (ABCB1)): (1.00)
IC50 at 68 h [11]: 170 ± 12.9 µM
fold reversal, vincristine (HEK/MRP1 (ABCC1)): (1.00)
IC50 at 68 h [12]: 0.0106 ± 0.0022 µM
fold reversal, vincristine (HEK293/pcDNA3.1; HEK293/pcDNA3.1 (Table 6)): (1.00)
fold reversal, vincristine (HEK293/pcDNA3.1; HEK293/pcDNA3.1): (1.00)
